Experimental data as given in patent US12612384B2, “Heterocyclic CYP4A inhibitor compounds and compositions thereof” (MBD CO., LTD., priority 2021, dated 2026).

What follows are molecules tested against T1, CYP4A (Homo sapiens, UniProt Q02928) (assay: CYP4A enzyme assay (luminescence, Luciferin-ME)). Settings: Compound concentration 5 μM; 50%-70%; read-out: % Inhibition 50%-70%.
T1 construct: purchased; host or cells: bacterial membranes ('bactosome')
T1 sequence (Q02928 5-519): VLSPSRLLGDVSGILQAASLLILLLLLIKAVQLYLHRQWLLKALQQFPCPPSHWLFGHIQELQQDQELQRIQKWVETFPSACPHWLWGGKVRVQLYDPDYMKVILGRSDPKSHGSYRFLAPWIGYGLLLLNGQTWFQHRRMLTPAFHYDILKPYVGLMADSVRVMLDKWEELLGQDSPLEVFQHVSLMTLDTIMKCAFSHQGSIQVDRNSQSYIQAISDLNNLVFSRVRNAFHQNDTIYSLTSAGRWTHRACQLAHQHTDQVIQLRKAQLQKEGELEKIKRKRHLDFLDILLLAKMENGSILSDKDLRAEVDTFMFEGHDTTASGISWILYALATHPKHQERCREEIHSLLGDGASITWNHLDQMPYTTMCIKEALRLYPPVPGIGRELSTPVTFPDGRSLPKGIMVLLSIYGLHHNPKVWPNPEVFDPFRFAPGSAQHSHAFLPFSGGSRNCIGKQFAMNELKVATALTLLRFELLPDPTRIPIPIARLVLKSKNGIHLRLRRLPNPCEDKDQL
Assay type: biochemical
Outline: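 Compounds (5 μM) were preincubated 15 min at room temperature with CYP4A bactosomes in 100 mM KPO4, 0.1% BSA, 1 mM DTT. Reaction ran 30 min at room temperature after adding 5 mM Luciferin-ME and NADPH regeneration system. Luminescence after 15 min with detection reagent; inhibition judged by comparing well signals.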
For `O=C(C1CCCN(S(=O)(=O)C2CC2)C1)N1CCN(c2ccnc3ccccc23)CC1` (stereo not drawn) [Example 122, (1-(cyclopropylsulfonyl)piperidin-3-yl)(4-(quinolin-4-yl)piperazin-1-yl)methanone], the inhibition at 5 µM was 50 to 70%.
Work on `O=C(C1CCCN(S(=O)(=O)c2ccco2)C1)N1CCN(c2ccnc3cc(Cl)ccc23)CC1` (stereo not drawn) [Example 123, (4-(7-chloroquinolin-4-yl)piperazin-1-yl)(1-(furan-2-ylsulfonyl)piperidin-3-yl)methanone] yielded an inhibition at 5 µM of 50 to 70%.
With `Cc1cc(N2CCN(C(=O)C3CCCN(S(=O)(=O)c4cccnc4)C3)CC2)c2ccccc2n1` (stereo not drawn) [Example 125, (4-(2-methylquinolin-4-yl)piperazin-1-yl)(1-(pyridin-3-ylsulfonyl)piperidin-3-yl)methanone] the inhibition at 5 µM was 50 to 70%.
With `Cc1cc(N2CCN(C(=O)C3CCCN(S(=O)(=O)c4ccncc4)C3)CC2)c2ccccc2n1` (stereo not drawn) [Example 126, (4-(2-methylquinolin-4-yl)piperazin-1-yl)(1-(pyridin-4-ylsulfonyl)piperidin-3-yl)methanone] the inhibition at 5 µM was 50 to 70%.
`Cc1cc(N2CCN(C(=O)C3CCCN(S(=O)(=O)c4cccs4)C3)CC2)c2ccccc2n1` (stereo not drawn) [Example 127, (4-(2-methylquinolin-4-yl)piperazin-1-yl)(1-(thiophen-2-ylsulfonyl)piperidin-3-yl)methanone] was tested, and the inhibition at 5 µM was 50 to 70%.
With `O=C(C1CCCN(S(=O)(=O)c2ccncc2)C1)N1CCN(c2cc(C(F)(F)F)nc3ccccc23)CC1` (stereo not drawn) [Example 128, (1-(pyridin-4-ylsulfonyl)piperidin-3-yl)(4-(2-(trifluoromethyl)quinolin-4-yl)piperazin-1-yl)methanone] the inhibition at 5 µM was 50 to 70%.
For `O=C(C1CCCN(S(=O)(=O)c2cccnc2)C1)N1CCN(c2cc(C(F)(F)F)nc3ccccc23)CC1` (stereo not drawn) [Example 129, (1-(pyridin-3-ylsulfonyl)piperidin-3-yl)(4-(2-(trifluoromethyl)quinolin-4-yl)piperazin-1-yl)methanone], the inhibition at 5 µM was 50 to 70%.
For `COC(=O)CCS(=O)(=O)N1CCCC(C(=O)N2CCN(c3ccnc4cc(F)ccc34)CC2)C1` (stereo not drawn) [Example 130, methyl 3-((3-(4-(7-fluoroquinolin-4-yl)piperazine-1-carbonyl)piperidin-1-yl)sulfonyl)propanoate], the inhibition at 5 µM was 50 to 70%.
With `O=C(C1CCCN(S(=O)(=O)CCCO)C1)N1CCN(c2ccnc3cc(F)ccc23)CC1` (stereo not drawn) [Example 131, (4-(7-fluoroquinolin-4-yl)piperazin-1-yl)(1-((3-hydroxypropyl)sulfonyl)piperidin-3-yl)methanone] the inhibition at 5 µM was 50 to 70%.
Molecule `COC(=O)CCS(=O)(=O)N1CCCC(C(=O)N2CCN(c3ccnc4ccccc34)CC2)C1` (stereo not drawn) [Example 132, methyl 3-((3-(4-(quinolin-4-yl)piperazine-1-carbonyl)piperidin-1-yl)sulfonyl)propanoate] has an inhibition at 5 µM of 50 to 70%.
`O=C(C1CCCN(S(=O)(=O)CCCO)C1)N1CCN(c2ccnc3ccccc23)CC1` (stereo not drawn) [Example 133, (1-((3-hydroxypropyl)sulfonyl)piperidin-3-yl)(4-(quinolin-4-yl)piperazin-1-yl)methanone] gave an inhibition at 5 µM of 50 to 70%.

Same assay, conditions: Compound concentration 5 μM; 70%-90%; read-out: % Inhibition 70%-90%
Molecule `O=C(C1CCCN(S(=O)(=O)C2CCCCC2)C1)N1CCN(c2ccnc3ccccc23)CC1` (stereo not drawn) [Example 121, (1-(cyclohexylsulfonyl)piperidin-3-yl)(4-(quinolin-4-yl)piperazin-1-yl)methanone] has an inhibition at 5 µM of 70 to 90%.
`O=C(C1CCCN(S(=O)(=O)c2ccncc2)C1)N1CCN(c2ccnc3cc(Cl)ccc23)CC1` (stereo not drawn) [Example 124, (4-(7-chloroquinolin-4-yl)piperazin-1-yl)(1-(pyridin-4-ylsulfonyl)piperidin-3-yl)methanone] was tested, and the inhibition at 5 µM was 70 to 90%.
Molecule `O=C(C1CCN(S(=O)(=O)c2ncn[nH]2)CC1)N1CCN(c2ccnc3cc(F)ccc23)CC1` [Example 135, (1-((1H-1,2,4-triazol-5-yl)sulfonyl)piperidin-4-yl)(4-(7-fluoroquinolin-4-yl)piperazin-1-yl)methanone] has an inhibition at 5 µM of 70 to 90%.
With `O=C([C@H]1CCN(S(=O)(=O)c2ncn[nH]2)C1)N1CCN(c2ccnc3c(F)cccc23)CC1` [Example 138, (S)-(1-((1H-1,2,4-triazol-5-yl)sulfonyl)pyrrolidin-3-yl)(4-(8-fluoroquinolin-4-yl)piperazin-1-yl)methanone] the inhibition at 5 µM was 70 to 90%.
Work on `Cn1cnc(S(=O)(=O)N2CC[C@H](C(=O)N3CCN(c4ccnc5cc(F)ccc45)CC3)C2)n1` [Example 139, (S)-(4-(7-fluoroquinolin-4-yl)piperazin-1-yl)(1-((1-methyl-1H-1,2,4-triazol-3-yl)sulfonyl)pyrrolidin-3-yl)methanone] yielded an inhibition at 5 µM of 70 to 90%.
`CC(C)n1cnc(S(=O)(=O)N2CC[C@H](C(=O)N3CCN(c4ccnc5cc(F)ccc45)CC3)C2)n1` [Example 141] was tested, and the inhibition at 5 µM was 70 to 90%.
`NCCn1cnc(S(=O)(=O)N2CC[C@H](C(=O)N3CCN(c4ccnc5cc(F)ccc45)CC3)C2)n1` [Example 144, (S)-(1-((1-(2-aminoethyl)-1H-1,2,4-triazol-3-yl)sulfonyl)pyrrolidin-3-yl)(4-(7-fluoroquinolin-4-yl)piperazin-1-yl)methanone] gave an inhibition at 5 µM of 70 to 90%.
Molecule `O=C([C@H]1CCN(S(=O)(=O)c2ncnn2CCO)C1)N1CCN(c2ccnc3cc(F)ccc23)CC1` [Example 145, (S)-(4-(7-fluoroquinolin-4-yl)piperazin-1-yl)(1-((1-(2-hydroxyethyl)-1H-1,2,4-triazol-5-yl)sulfonyl)pyrrolidin-3-yl)methanone] has an inhibition at 5 µM of 70 to 90%.
`NCCn1ccnc1S(=O)(=O)N1CC[C@H](C(=O)N2CCN(c3ccnc4cc(F)ccc34)CC2)C1` [Example 150, (S)-(1-((1-(2-aminoethyl)-1H-imidazol-2-yl)sulfonyl)pyrrolidin-3-yl)(4-(7-fluoroquinolin-4-yl)piperazin-1-yl)methanone] was tested, and the inhibition at 5 µM was 70 to 90%.

Same assay, conditions: Compound concentration 5 μM; Greater than 90%; read-out: % Inhibition Greater than 90%
Molecule `O=C([C@@H]1CCN(S(=O)(=O)c2ncn[nH]2)C1)N1CCN(c2ccnc3cc(F)ccc23)CC1` [Example 134, (R)-(1-((1H-1,2,4-triazol-5-yl)sulfonyl)pyrrolidin-3-yl)(4-(7-fluoroquinolin-4-yl)piperazin-1-yl)methanone] has an inhibition at 5 µM greater than 90%.
`O=C([C@H]1CCN(S(=O)(=O)c2ncn[nH]2)C1)N1CCN(c2ccnc3ccc(F)cc23)CC1` [Example 136, (S)-(1-((1H-1,2,4-triazol-5-yl)sulfonyl)pyrrolidin-3-yl)(4-(6-fluoroquinolin-4-yl)piperazin-1-yl)methanone] gave an inhibition at 5 µM greater than 90%.
In the case of `O=C(C1CN(S(=O)(=O)c2ncn[nH]2)C1)N1CCN(c2ccnc3cc(F)ccc23)CC1` [Example 137, (1-((1H-1,2,4-triazol-5-yl)sulfonyl)azetidin-3-yl)(4-(7-fluoroquinolin-4-yl)piperazin-1-yl)methanone], the inhibition at 5 µM is reported as greater than 90%.
`O=C([C@H]1CCN(S(=O)(=O)c2ncn(CCO)n2)C1)N1CCN(c2ccnc3cc(F)ccc23)CC1` [Example 140, (S)-(4-(7-fluoroquinolin-4-yl)piperazin-1-yl)(1-((1-(2-hydroxyethyl)-1H-1,2,4-triazol-3-yl)sulfonyl)pyrrolidin-3-yl)methanone] gave an inhibition at 5 µM greater than 90%.
`CC(=O)Cn1cnc(S(=O)(=O)N2CC[C@H](C(=O)N3CCN(c4ccnc5cc(F)ccc45)CC3)C2)n1` [Example 142, (S)-1-(3-((3-(4-(7-fluoroquinolin-4-yl)piperazine-1-carbonyl)pyrrolidin-1-yl)sulfonyl)-1H-1,2,4-triazol-1-yl)propan-2-one] was tested, and the inhibition at 5 µM was greater than 90%.
Molecule `COCCn1cnc(S(=O)(=O)N2CC[C@H](C(=O)N3CCN(c4ccnc5cc(F)ccc45)CC3)C2)n1` [Example 143, (S)-(4-(7-fluoroquinolin-4-yl)piperazin-1-yl)(1-((1-(2-methoxyethyl)-1H-1,2,4-triazol-3-yl)sulfonyl)pyrrolidin-3-yl)methanone] has an inhibition at 5 µM greater than 90%.
For `O=C([C@H]1CCN(S(=O)(=O)c2ncc[nH]2)C1)N1CCN(c2ccnc3cc(F)ccc23)CC1` [Example 146, (S)-(1-((1H-imidazol-2-yl)sulfonyl)pyrrolidin-3-yl)(4-(7-fluoroquinolin-4-yl)piperazin-1-yl)methanone], the inhibition at 5 µM was greater than 90%.
`O=C([C@@H]1CCN(S(=O)(=O)c2ncc[nH]2)C1)N1CCN(c2ccnc3cc(F)ccc23)CC1` [Example 147, (R)-(1-((1H-imidazol-2-yl)sulfonyl)pyrrolidin-3-yl)(4-(7-fluoroquinolin-4-yl)piperazin-1-yl)methanone] was tested, and the inhibition at 5 µM was greater than 90%.
For `O=C([C@H]1CCN(S(=O)(=O)c2nccn2CCO)C1)N1CCN(c2ccnc3cc(F)ccc23)CC1` [Example 148, (S)-(4-(7-fluoroquinolin-4-yl)piperazin-1-yl)(1-((1-(2-hydroxyethyl)-1H-imidazol-2-yl)sulfonyl)pyrrolidin-3-yl)methanone], the inhibition at 5 µM was greater than 90%.
`COCCn1ccnc1S(=O)(=O)N1CC[C@H](C(=O)N2CCN(c3ccnc4cc(F)ccc34)CC2)C1` [Example 149, (S)-(4-(7-fluoroquinolin-4-yl)piperazin-1-yl)(1-((1-(2-methoxyethyl)-1H-imidazol-2-yl)sulfonyl)pyrrolidin-3-yl)methanone] was tested, and the inhibition at 5 µM was greater than 90%.
